# Measurements from PMC11423305, “Structure-Based Design of CBP/EP300 Degraders: When Cooperativity Overcomes Affinity” (JACS Au, 2024).
# Entries after “also recorded” stand apart in the source; their conditions may differ.
# How the values were obtained:
# Type in all cases: cell-based
# [1] = system: SH-SY5Y cells; experiment: Cell viability (resazurin), SH-SY5Y; conditions: 3 day treatment
# Description: normalized to DMSO treated lanes on the same membrane. (Several compounds were
# measured at the same time, so DMSO treated lanes are replicated here between
# Figure S5. Anti-proliferation in additional cell lines. LNCaP (A and C) and SH-SY5Y (B)
# cell viability following 3 day compound treatment, and LNCaP following 6 day treatment
# (D), determined using resazurin.
# After 3 days of treatment, dCE-2 only has a mild effect on the proliferation of LNCaP and
# SH-SY5Y cells (Figure S5A and B).
# the new CBP/EP300 PROTACs CBPD -268 and CBPD-4092,3 which have enhanced anti-
# proliferative activity in LNcaP cells relative to their parent inhibitor s. However, although
# these PROTACs have effects at very low concentrations, their effect plateaus and a
# substantial proportion of cells remain viable at high compound concentrations. Similarly,
# degradation of CBP and EP300, the maximal effect of this PROTAC is also limited under
# the conditions we used (Figure S5C). Through this work it was clear to us that these […]
# (§1) The primer sequences used were:
# (§2) Gene Gene ID Forward Primer (5’-3’) Reverse primer (5’-3’)
# (§3) myc NM_001354870.1 GTAGTGGAAAACCAGCC […]
# (§4) Fluorescence (excitation = 560 nm, emission = 590 nm) was measured using a
# spectraMax M5 microplate reader (Molecular Devices) and cell viability was calculated […]
# values were calculated as the concentration required to inhibit cell viability to 50 % […]
# [2] = system: MM1S cells; experiment: Cell viability (resazurin), MM1S; conditions: Homo sapiens, MM1.S, 72 h, 3 days
# Description: as §1, §2, §3
# crebbp NM_004380.3 TGTCACAGGGACAGGTGC […]
# Cells were plated onto 96 well plates at the following densities in 90 μl volume: 3x104
# LP1 cells/well or 5x10^3 LNCaP cells/well both plated same day as treatment, or 2x104
# MM1S cells/well or 1.5x10^3 SH-SY5Y cells/well both plated day prior to treatment.
# Compounds were added in 10 μl to give the stated concentrations with a final
# concentration of 0.1 % DMSO. Following 3 days of compound treatment, resazurin
# (Acros Organics, 189900010) was added at a f inal concentration of 86 μM and incubated
# for the following times: MM1S 5 h, LP1 3 h, LNCaP 1 h 30 min, SH-SY5Y 6 h.
# as §4
# spectraMax M5 microplate reader (Molecular Devices) and cell viability was calculated
# relative to DMSO treated cells on the same plate. Data was fitted using a four -parameter
# dose-response curve in GraphPad Prism v. 9.5.1, where the top is fixed at 100 %. GI50
# values were calculated as the concentration required to inhibit cell viability to 50 %
# relative to DMSO treated cells after 3 days.
# Sample digestion and clean up: Treated cells were washed in PBS and cell pellets
# were then lysed in 4 % SDS/Tris-HCl, treated with High Intensity Focused Ultrasound […]
# [3] = target: T1, EP300 (Homo sapiens, UniProt Q09472); experiment: Quantification of EP300 degradation by Western blotting in LP1 cells; conditions: 5 μM compound, 16 h, Western blot
# T1 construct: quantification of CBP and EP300 levels by Western blotting following 16 h treatment of LP1 cells; endogenous in cells; host or cells: LP1 cells
# T1 sequence (Q09472 whole entry): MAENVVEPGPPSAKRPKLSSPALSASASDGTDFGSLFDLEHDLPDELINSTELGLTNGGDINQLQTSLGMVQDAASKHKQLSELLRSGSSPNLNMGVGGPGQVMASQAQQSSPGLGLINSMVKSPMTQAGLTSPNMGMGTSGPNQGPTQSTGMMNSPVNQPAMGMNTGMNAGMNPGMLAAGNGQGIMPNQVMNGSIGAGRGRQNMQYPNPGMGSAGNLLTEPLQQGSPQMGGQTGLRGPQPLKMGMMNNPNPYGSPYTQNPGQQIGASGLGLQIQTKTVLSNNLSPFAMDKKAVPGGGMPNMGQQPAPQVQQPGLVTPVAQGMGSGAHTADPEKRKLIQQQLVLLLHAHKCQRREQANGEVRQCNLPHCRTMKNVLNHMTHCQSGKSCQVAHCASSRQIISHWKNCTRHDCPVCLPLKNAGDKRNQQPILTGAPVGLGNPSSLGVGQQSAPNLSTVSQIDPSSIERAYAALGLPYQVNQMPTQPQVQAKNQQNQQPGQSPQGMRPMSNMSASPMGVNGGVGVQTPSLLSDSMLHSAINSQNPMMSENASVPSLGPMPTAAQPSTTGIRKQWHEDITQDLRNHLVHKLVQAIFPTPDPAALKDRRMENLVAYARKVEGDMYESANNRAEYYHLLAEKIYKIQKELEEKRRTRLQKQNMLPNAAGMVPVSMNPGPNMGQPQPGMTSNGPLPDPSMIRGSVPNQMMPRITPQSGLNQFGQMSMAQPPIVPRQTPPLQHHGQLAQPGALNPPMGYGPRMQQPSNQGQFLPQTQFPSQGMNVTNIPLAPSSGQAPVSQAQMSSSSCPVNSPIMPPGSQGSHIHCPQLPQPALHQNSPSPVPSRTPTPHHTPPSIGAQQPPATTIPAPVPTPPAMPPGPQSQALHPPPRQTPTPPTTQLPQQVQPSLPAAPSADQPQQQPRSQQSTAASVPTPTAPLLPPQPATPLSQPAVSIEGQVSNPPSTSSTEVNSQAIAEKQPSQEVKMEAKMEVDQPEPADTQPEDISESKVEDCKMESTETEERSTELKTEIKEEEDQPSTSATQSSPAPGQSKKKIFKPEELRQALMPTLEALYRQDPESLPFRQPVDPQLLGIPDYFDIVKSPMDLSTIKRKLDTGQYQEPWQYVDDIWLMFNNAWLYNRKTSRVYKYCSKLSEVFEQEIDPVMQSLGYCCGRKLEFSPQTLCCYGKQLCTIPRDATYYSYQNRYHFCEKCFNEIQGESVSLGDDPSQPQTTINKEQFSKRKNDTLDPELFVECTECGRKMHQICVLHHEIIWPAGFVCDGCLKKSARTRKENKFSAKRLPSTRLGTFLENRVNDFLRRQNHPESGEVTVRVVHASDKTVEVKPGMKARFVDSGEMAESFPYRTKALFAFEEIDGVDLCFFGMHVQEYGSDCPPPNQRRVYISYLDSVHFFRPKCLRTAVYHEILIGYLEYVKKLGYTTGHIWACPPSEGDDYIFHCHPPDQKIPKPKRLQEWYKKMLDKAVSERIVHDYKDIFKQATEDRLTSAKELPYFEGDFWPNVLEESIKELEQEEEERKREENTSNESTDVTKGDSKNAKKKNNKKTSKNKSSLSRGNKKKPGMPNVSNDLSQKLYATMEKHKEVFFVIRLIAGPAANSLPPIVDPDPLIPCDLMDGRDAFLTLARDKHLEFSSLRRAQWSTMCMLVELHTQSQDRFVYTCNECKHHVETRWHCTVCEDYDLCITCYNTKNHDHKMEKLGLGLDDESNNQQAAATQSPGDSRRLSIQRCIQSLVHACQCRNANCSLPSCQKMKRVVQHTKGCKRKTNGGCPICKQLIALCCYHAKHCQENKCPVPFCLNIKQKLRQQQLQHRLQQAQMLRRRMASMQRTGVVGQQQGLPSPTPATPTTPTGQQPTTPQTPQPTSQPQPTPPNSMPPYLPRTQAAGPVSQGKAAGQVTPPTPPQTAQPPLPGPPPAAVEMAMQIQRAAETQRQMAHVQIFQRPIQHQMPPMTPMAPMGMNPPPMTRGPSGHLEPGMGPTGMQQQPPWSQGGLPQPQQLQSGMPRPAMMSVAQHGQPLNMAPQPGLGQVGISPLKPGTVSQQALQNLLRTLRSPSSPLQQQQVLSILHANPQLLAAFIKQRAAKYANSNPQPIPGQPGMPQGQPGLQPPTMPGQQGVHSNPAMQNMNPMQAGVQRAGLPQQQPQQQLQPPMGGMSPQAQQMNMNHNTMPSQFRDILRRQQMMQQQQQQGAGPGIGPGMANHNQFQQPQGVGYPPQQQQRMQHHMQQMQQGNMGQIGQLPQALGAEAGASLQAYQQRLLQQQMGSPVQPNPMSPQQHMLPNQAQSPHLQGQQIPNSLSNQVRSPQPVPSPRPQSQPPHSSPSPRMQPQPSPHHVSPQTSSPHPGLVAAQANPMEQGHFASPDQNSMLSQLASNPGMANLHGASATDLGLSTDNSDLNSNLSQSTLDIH
# Description: LP1 cells were cultured in DMEM (Gibco, 41966-029) supplemented with 15 % FBS (Sigma, F9665); MM1S and LNCaP cells in RPMI 1640 ATCC modification (Gibco, […]
# DMEM/F12 (Gibco, 11320074) supplemented with 1 % non-essential amino acids […]
# additionally supplemented with 1 % penicillin/streptomycin (Gibco, 15070-063), and cells maintained in a humidified incubator with 5 % CO2 at 37 °C. The identity of all lines (except for MM1S which were recently purchased from ATCC) was authenticated by STR profiling (performed by Microsynth).
# Quantification of CBP/EP300 degradation by Western blotting
# LP1 cells plated on 6 well plates were treated with the stated compounds at a final concentration of 0.1 % DMSO for the stated time. Cells were harvested on ice, washed in PBS and lysed in RIPA buffer (50 mM tris pH 7.5, 2 mM EDTA, 150 mM NaCl, 0.5 % sodium deoxycholate, 1 % Triton X100) supplemented with cOmplete ™ protease inhibitor cocktail (Roche). Protein concentrations were determined using the Pierce ™ BCA Protein Assay Kit (Thermo Scientific, 23227) and equal amounts were separated on 4-12 % ExpressPl us™ PAGE gels (GenScript, M41215). Proteins were transferred to PVDF membranes, the membranes were blocked with 5 % milk (Merk Millipore, 115363) in PBS-T and proteins were stained with the following antibodies at 4 °C overnight: CBP […]
# BRD4 (Bethyl Laboratories, A301-985A50, diluted 1:2000) and vinculin (Invitrogen, 42H89L44, diluted 1:1000). For detection, membranes were incubated for 1 h at room temperature with HRP-conjugated secondary antibodies (Southern Biotech, anti-rabbit […]
# SuperSignal™ West Pico PLUS Chemiluminescent Substrate (Thermo Scientific, 34580) and the Vilber Fusion-FX7 imager. Bands were quantified using ImageJ software and protein levels normalized to protein from DMSO treated cells run on the same membrane. For dose response curves, data was fitted using a four -parameter dose-response curve in GraphPad Prism v. 9.5.1, where the top is fixed at 100 %. The DC50 was defined as the PROTAC concentration resulting in 50 % remaining protein. […]
structure (smiles),measurement,setting,value
Cc1cc2c(NC(=O)c3cc(NC(=O)CCCCCCCCCCNc4cccc5c4C(=O)N(C4CCC(=O)NC4=O)C5=O)cc(-c4ccn(C)n4)c3)cccc2nn1 (stereo not drawn) [dCE-2],effect on proliferation of SH-SY5Y cells,[1],mild effect; also recorded: limited effect
same,GI50,[2],0.035 µM
same,% remaining EP300,[3],43%
